# Assay results taken from publication PMC4129108, “The natural triterpene 3β,6β,16β-trihydroxy-lup-20(29)-ene obtained from the flowers of Combretum leprosum induces apoptosis in MCF-7 breast cancer cells” (BMC Complementary and Alternative Medicine, 2014).
# Key:
# Assay type in all cases: cell-based, human
# [1] = test system: HCT116 cell (colorectal carcinoma); experiment: XTT cell viability assay, HCT116; conditions: for IC50: Homo sapiens, HCT-116, XTT
# Method: (§1) The human cell lines MCF-7 (breast adenocarcinoma), HepG2 (hepatoma), T24 (bladder cancer), CACO-2 (colorectal adenocarcinoma) and MRC5 (lung normal fibroblast) were obtained from the Rio de Janeiro Cell Bank (Rio de Janeiro, RJ, Brazil). The HCT116 cell (colorectal carcinoma), and HT29 cell (colorectal adenocarcinoma) were kindly provided by Dr. Annette K. Larsen (Institut National de la Santé et de la Recherche Médicale - INSERM, Paris, França). All cell lines except MCF-7 were grown in DMEM supplemented with 10% or 20% (for CACO-2) FBS, 100 units.mL^-1 penicillin and 100 μg.mL^-1 streptomycin at 37°C in a humidified atmosphere of 5% CO2. MCF-7 cells were maintained in RPMI-1640 supplemented with 20% FBS at the same conditions described above.
# (§2) The cytotoxic potential of the TTHL was evaluated by the XTT assay in human tumor cell lines as well as in MRC5 normal fibroblasts. Cells (1 × 10^4 cells) were seeded on 96-well plates in growth medium and incubated overnight. Afterwards, TTHL (0.5, 1.0, 2.5, 5.0, and 10 μg/mL) was added to each well and incubated for 24, 48, 72, and 120 h. Mitoxantrone, a cytostatic anthracenedione that intercalates in DNA and increases the incidence of double-strand breaks by stabilizing the cleavable complex of topoisomerase II and DNA, was used as positive control. At the end of each treatment, cell viability was assessed according to the manufacturer’s instructions. Briefly, after discarding the medium, 1 mL of XTT labeling mixture was added to the cells and incubated for 2 h at 37°C. Absorbance was measured with a SpectraMax reader (Bio-Rad, USA) at a test wavelength of 492 nm (A492) and a reference wavelength of 690 nm (A690). The final result corresponds to A492-A690. The absorbance of negative control cells was set as 100% viability, and the values for treated cells were calculated as a percentage of the control.
# (§3) The IC20, IC50, and IC80 values and their 95% confidence intervals (CI 95%) were obtained by nonlinear regression using GraphPad Prism v5 program (Intuitive Software for Science, San Diego, CA, USA). Selective index (SI) was calculated by IC50 in MRC5 cells/IC50 in tumoral cells. All experiments were independently repeated at least three times, with triplicate samples for each treatment. Results are expressed as means ± standard deviation (SD). Data were analyzed by one-way analysis of variance (ANOVA), and means were compared using Tukey test, with P ≤ 0.05 considered as statistically significant.
# [2] = test system: intracellular ROS in MCF-7 cells; experiment: ROS detection by flow cytometry (H2DCFDA)
# Method: Cells (2 × 10^5 cells/mL) were seeded on 6-well tissue culture plates, and grown for 1 day up to 70–80% confluence before treatment with the test substance. The TTHL was added to medium with FBS to obtain the different concentrations, and cells were treated at 37°C for 24 h in humidified atmosphere containing 5% CO2.
# Levels of intracellular ROS were estimated following treatment with TTHL using 2′,7′-dichlorofluorescein diacetate (H2DCFDA, Sigma) as a fluorescent probe. Detection of oxidative stress was done by incubating the cells with 20 μM of H2DCFDA for 20 min at 37°C. Cells were then detached by trypsinization and washed twice with PBS. After filtration through cell strainer cap, cells were analyzed using a FACS Calibur flow cytometer with CellQuest software in accordance with Bass et al.. A total of 10,000 events were measured per sample. DCF fluorescence intensity was shown in arbitrary units.
# HepG2 (hepatoma) = experiment: XTT cell viability assay, HepG2; conditions: for IC50: Homo sapiens, XTT
# Method: as §1, §2, §3
compound,measurement,setting,value
"C=C(C)[C@@H]1CC[C@@]2(C)[C@H]1[C@H]1CC[C@@H]3[C@@]4(C)CC[C@H](O)C(C)(C)[C@@H]4[C@H](O)C[C@@]3(C)[C@]1(C)C[C@@H]2O [TTHL, 3β,6β,16β-trihydroxy-lup-20(29)-ene]",IC50,"[1]; HCT116, 24 h treatment",7.05 ± 0.21 µg/mL
same,IC50,"[1]; HCT116, 48 h treatment",5.87 ± 0.04 µg/mL
same,IC50,"[1]; HCT116, 72 h treatment",5.2 ± 0.28 µg/mL
same,IC50,"[1]; HCT116, 120 h treatment",4.5 ± 0.29 µg/mL
same,Selectivity index (SI),"[1]; IC50 in MRC5 cells/IC50 in HCT116, 24 h",1 X
same,Selectivity index (SI),"[1]; IC50 in MRC5 cells/IC50 in HCT116, 48 h",1 X
same,Selectivity index (SI),"[1]; IC50 in MRC5 cells/IC50 in HCT116, 72 h",1 X
same,Selectivity index (SI),"[1]; IC50 in MRC5 cells/IC50 in HCT116, 120 h",1.5 X
same,increase in intracellular ROS production,"[2]; MCF-7, 24 h treatment at IC50",49%
same,increase in intracellular ROS production,"[2]; MCF-7, 24 h treatment at IC80",64%
same,IC50,"HepG2 (hepatoma); HepG2, 24 h treatment",6.5 ± 0.43 µg/mL
same,IC50,"HepG2 (hepatoma); HepG2, 48 h treatment",6.1 ± 0.28 µg/mL
same,IC50,"HepG2 (hepatoma); HepG2, 72 h treatment",5.45 ± 0.35 µg/mL
same,IC50,"HepG2 (hepatoma); HepG2, 120 h treatment",0.88 ± 0.13 µg/mL
same,Selectivity index (SI),"HepG2 (hepatoma); IC50 in MRC5 cells/IC50 in HepG2, 24 h",1.3 X
same,Selectivity index (SI),"HepG2 (hepatoma); IC50 in MRC5 cells/IC50 in HepG2, 48 h",1 X
same,Selectivity index (SI),"HepG2 (hepatoma); IC50 in MRC5 cells/IC50 in HepG2, 72 h",1 X
same,Selectivity index (SI),"HepG2 (hepatoma); IC50 in MRC5 cells/IC50 in HepG2, 120 h",8 X
